According to article PMC11311250 (Organic & biomolecular chemistry, 2023):
Like-named read-outs stand apart in the source and are kept apart here.

Assays:
[1] = amide bond, 12-membered ring
P. aeruginosa K799 = experiment: antibacterial microdilution growth inhibition; assay type: cell-based, Pseudomonas aeruginosa
[2] = amide bond; 12-membered ring; T3P/DIEA; DMF; 45.0 °C
[3] = T3P/DIEA, DCE, 1.0 mM, 80.0 °C, 3 steps
[4] = T3P/collidine, DCE, 1.0 mM, 80.0 °C, 3 steps

“(3S,6S,9R,12S)-3,9-dibenzyl-1,6,7,12-tetramethyl-1,4,7,10-tetraazacyclododecane-2,5,8,11-tetraone (cyclo (L-N-Me-Ala–L-Phe–L-N-Me-Ala-D-Phe))” showed a ring closure, isolated yield [1, 3] of 5%.
Substance ALAL has a ring closure, isolated yield [1, 4] of 11%.
With “all-L cyclo(N-Me-Leu–Phe)2 (head to tail) [pseudoxylallemycin A]” the growth inhibition (P. aeruginosa K799) was “failed to inhibit the growth”.
epi-pseudoxylallemycin gave a ring closure, isolated yield ([1]; T3P/DIEA, DCM/DMF 9:1, 45.0 °C) of 26%.
epi-pseudoxylallemycin A gave a ring closure, isolated yield [1, 4] of 33%.
In the case of pseudoxylallemycin A, the ring closure, isolated yield [1, 3] was 18.1%, the ring closure, isolated yield ([1]; T3P/DIEA, DMF, 1.0 mM, 45.0 °C, 3 steps) was 11.7% and the ring closure, isolated yield ([1]; T3P/DIEA, DMF, 1.0 mM, 80.0 °C, 3 steps) was 14.7%. For the same substance, the ring closure, isolated yield ([1]; T3P/DtBP, DCE, 1.0 mM, 80.0 °C, 3 steps) was 19%, the ring closure, isolated yield [1, 4] was 36% and the ring closure, isolated yield ([1]; T3P/pyridine, DCE, 1.0 mM, 80.0 °C, 3 steps) was 32%. The ring closure, yield after HPLC [2] was 24%.
